From patent US20240366770A1, “DEGRADATION OF BRUTON'S TYROSINE KINASE (BTK) BY CONJUGATION OF BTK INHIBITORS WITH E3 LIGASE LIGAND AND METHODS OF USE” (BeiGene Switzerland GmbH, priority 2021, published 2024) come the findings set out here.

By DC50 is commonly meant the midpoint of the concentration-degradation curve. A lower DC50 goes with degradation at low concentration.

For one experiment, the system named is HEK-293 cells. Nature of the experiment: HEK-293 cytotoxicity detection (CellTiter-Glo). The experiment is classed as cell-based. The conditions noted are these: Homo sapiens; HEK-293 cells, 72 h incubation, CellTiter-Glo luminescence, IC50 of cell proliferation inhibition; read-out: HEK293. The method, boiled down: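 Four-parameter logistic fitting of percent inhibition versus concentration gives IC50. Luminescent ATP read-out (CellTiter-Glo) after 72 h compound treatment of HEK-293 cells, 8 doses in 4-fold steps from a 5 mM 500× DMSO stock, final DMSO 0.2%.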
(ATP-based viability assays read luminescence as a measure of living cells.)

The target of a further experiment is T1, BTK (Homo sapiens, UniProt Q06187).
T1 construct: High control=Cell group with added DMSO and without compound, indicating microplate readings without BTK degradation; endogenous in cells; host or cells: TMD-8
Nature of the experiment: BTK degradation in TMD-8 cells (HTRF assay). The following applies: 6 h treatment, IC50 (DC50) of BTK degradation. Type of experiment: cell-based. The essentials:
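BTK remaining after compound treatment was measured by HTRF (337 nm excitation, 665/620 nm emission) in lysates of TMD-8 cells. Cells were exposed for 6 h to eight 6-fold-spaced concentrations in 0.2% DMSO. DC50 values were obtained from a Hill-equation fit (top, bottom, slope) of % inhibition.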

The structures appear in SMILES notation.

T1 sequence (Q06187 whole entry): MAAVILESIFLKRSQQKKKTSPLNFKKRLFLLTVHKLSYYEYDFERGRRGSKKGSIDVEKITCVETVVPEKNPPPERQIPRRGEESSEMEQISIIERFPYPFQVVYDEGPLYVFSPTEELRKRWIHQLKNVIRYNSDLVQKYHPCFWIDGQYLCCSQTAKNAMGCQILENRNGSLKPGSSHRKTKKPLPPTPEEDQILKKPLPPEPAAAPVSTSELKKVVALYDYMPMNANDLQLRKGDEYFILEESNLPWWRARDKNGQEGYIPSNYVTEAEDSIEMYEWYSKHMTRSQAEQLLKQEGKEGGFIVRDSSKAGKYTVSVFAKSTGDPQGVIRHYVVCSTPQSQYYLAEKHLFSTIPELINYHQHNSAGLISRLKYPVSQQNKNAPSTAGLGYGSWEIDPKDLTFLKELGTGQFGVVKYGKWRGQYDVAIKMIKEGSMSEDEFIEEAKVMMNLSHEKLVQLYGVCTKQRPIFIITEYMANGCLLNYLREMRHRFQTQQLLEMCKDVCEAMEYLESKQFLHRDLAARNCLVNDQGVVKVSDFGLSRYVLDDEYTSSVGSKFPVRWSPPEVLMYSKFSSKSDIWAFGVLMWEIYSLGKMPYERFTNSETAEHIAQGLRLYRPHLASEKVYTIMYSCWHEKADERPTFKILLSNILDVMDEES

As to `COc1cc2c(cc1N1CCN(C3CC(c4ccc([C@H]5CCC(=O)NC5=O)cc4)C3)CC1)[nH]c1ncnc(-c3ccc([C@@H](C)NC(=O)c4nc(C5(C)CC5)no4)c(C)c3F)c12` (stereo partly drawn) [Example 72, N—((R)-1-(4-(7-(4-(3-(4-((R)-2,6-dioxopiperidin-3-yl)phenyl)cyclobutyl)piperazin-1-yl)-6-methoxy-9H-pyrimido[4,5-b]indol-4-yl)-3-fluoro-2-methylphenyl)ethyl)-3-(1-methylcyclopropyl)-1,2,4-oxadiazole-5-carboxamide], the IC50 in the experiment with HEK-293 cells was > 10 µM. Moreover, the DC50 at BTK stood at 0.0159 µM.

For `COc1cc2c(cc1N1CCN(Cc3ccc4c(c3)C(C)(C)C(=O)N4C3CCC(=O)NC3=O)CC1)[nH]c1ncnc(-c3ccc([C@@H](C)NC(=O)c4nc(C(C)(C)C)no4)c(C)c3)c12` (stereo partly drawn) [Example 73, 3-(tert-butyl)-N-((1R)-1-(4-(7-(4-((1-(2,6-dioxopiperidin-3-yl)-3,3-dimethyl-2-oxoindolin-5-yl)methyl)piperazin-1-yl)-6-methoxy-9H-pyrimido[4,5-b]indol-4-yl)-2-methylphenyl)ethyl)-1,2,4-oxadiazole-5-carboxamide], the IC50 with HEK-293 cells is > 10 µM. The 50% degradation concentration (DC50) at BTK was found to be 0.00127 µM.

Consider `COc1cc2c(cc1N1CCN(Cc3ccc4c(c3)C(C)(C)C(=O)N4C3CCC(=O)NC3=O)CC1)[nH]c1ncnc(-c3ccc([C@@H](C)NC(=O)c4nc(C5(C)CC5)no4)c(C)c3)c12` (stereo partly drawn) [Example 74, N-((1R)-1-(4-(7-(4-((1-(2,6-dioxopiperidin-3-yl)-3,3-dimethyl-2-oxoindolin-5-yl)methyl)piperazin-1-yl)-6-methoxy-9H-pyrimido[4,5-b]indol-4-yl)-2-methylphenyl)ethyl)-3-(1-methylcyclopropyl)-1,2,4-oxadiazole-5-carboxamide], for which the IC50 with HEK-293 cells is > 10 µM. Further, on BTK, half-maximal degradation (DC50) was put at 0.00204 µM.

For `COc1cc2c(cc1N1CCN(Cc3ccc(SC4CCC(=O)NC4=O)cc3)CC1)[nH]c1ncnc(-c3ccc([C@@H](C)NC(=O)c4nc(C(C)(C)C)no4)c(C)c3)c12` (stereo partly drawn) [Example 75, 3-(tert-butyl)-N-((1R)-1-(4-(7-(4-(4-((2,6-dioxopiperidin-3-yl)thio)benzyl)piperazin-1-yl)-6-methoxy-9H-pyrimido[4,5-b]indol-4-yl)-2-methylphenyl)ethyl)-1,2,4-oxadiazole-5-carboxamide], in the experiment on HEK-293 cells, the IC50 was > 10 µM. Moreover, the DC50 on BTK is > 2 µM.

As to `COc1cc2c(cc1N1CCN(Cc3ccc4c(c3)C3(CC3)C(=O)N4C3CCC(=O)NC3=O)CC1)[nH]c1ncnc(-c3ccc([C@@H](C)NC(=O)c4nc(C(C)(C)C)no4)c(C)c3)c12` (stereo partly drawn) [Example 76, 3-(tert-butyl)-N-((1R)-1-(4-(7-(4-((1′-(2,6-dioxopiperidin-3-yl)-2′-oxospiro[cyclopropane-1,3′-indolin]-5′-yl)methyl)piperazin-1-yl)-6-methoxy-9H-pyrimido[4,5-b]indol-4-yl)-2-methylphenyl)ethyl)-1,2,4-oxadiazole-5-carboxamide], the IC50 in the experiment on HEK-293 cells is > 10 µM. This compound gave a DC50 at BTK of 0.0016 µM.

Turning to `COc1cc2c(cc1N1CCN(Cc3ccc(SC4CCC(=O)NC4=O)cc3)CC1)[nH]c1ncnc(-c3ccc([C@@H](C)NC(=O)c4nc(C5(C)CC5)no4)c(C)c3)c12` (stereo partly drawn) [Example 77, N-((1R)-1-(4-(7-(4-(4-((2,6-dioxopiperidin-3-yl)thio)benzyl)piperazin-1-yl)-6-methoxy-9H-pyrimido[4,5-b]indol-4-yl)-2-methylphenyl)ethyl)-3-(1-methylcyclopropyl)-1,2,4-oxadiazole-5-carboxamide], in the experiment with HEK-293 cells, the IC50 is > 10 µM. At BTK, this compound yielded a DC50 of 0.00848 µM.

On to `Cc1c([C@@H](C)NC(=O)c2noc(C(C)(C)C)n2)ccc(-c2ncnc3[nH]c4cc(N5CCN(Cc6ccc7c(c6)n(C6CCC(=O)NC6=O)c(=O)n7C)CC5)ccc4c23)c1F` (stereo partly drawn) [Example 78, 5-(tert-butyl)-N-((1R)-1-(4-(7-(4-((3-(2,6-dioxopiperidin-3-yl)-1-methyl-2-oxo-2,3-dihydro-1H-benzo[d]imidazol-5-yl)methyl)piperazin-1-yl)-9H-pyrimido[4,5-b]indol-4-yl)-3-fluoro-2-methylphenyl)ethyl)-1,2,4-oxadiazole-3-carboxamide], for which the IC50 with HEK-293 cells was > 10 µM. For the same compound, at BTK, the half-maximal degradation concentration (DC50) was > 2 µM.

Consider `Cc1c([C@@H](C)NC(=O)c2noc(C(C)(C)C)n2)ccc(-c2ncnc3[nH]c4cc(N5CCN(Cc6ccc7c(c6)C6(CC6)C(=O)N7C6CCC(=O)NC6=O)CC5)ccc4c23)c1F` (stereo partly drawn) [Example 79, 5-(tert-butyl)-N-((1R)-1-(4-(7-(4-((1′-(2,6-dioxopiperidin-3-yl)-2′-oxospiro[cyclopropane-1,3′-indolin]-5′-yl)methyl)piperazin-1-yl)-9H-pyrimido[4,5-b]indol-4-yl)-3-fluoro-2-methylphenyl)ethyl)-1,2,4-oxadiazole-3-carboxamide], for which the IC50 with HEK-293 cells is > 10 µM. Further, on BTK, the DC50 was determined as 0.0159 µM.

Regarding `Cc1c([C@@H](C)NC(=O)c2noc(C(C)(C)C)n2)ccc(-c2ncnc3[nH]c4cc(N5CCN(CCc6ccc(SC7CCC(=O)NC7=O)cc6)CC5)ccc4c23)c1F` (stereo partly drawn) [Example 80, 5-(tert-butyl)-N-((1R)-1-(4-(7-(4-(4-((2,6-dioxopiperidin-3-yl)thio)phenethyl)piperazin-1-yl)-9H-pyrimido[4,5-b]indol-4-yl)-3-fluoro-2-methylphenyl)ethyl)-1,2,4-oxadiazole-3-carboxamide], in the experiment with HEK-293 cells, the IC50 is > 10 µM. The compound also showed a 50% degradation concentration (DC50) on BTK of 0.0166 µM.

In the case of `CN1CCN(CC2CCN(c3ncnc4[nH]c5cc(N6CCN(CC7CCN(c8ccc(N9CCC(=O)NC9=O)cc8)CC7)CC6)ccc5c34)CC2)C1=O` [Example 81, 1-(4-(4-((4-(4-(4-((3-methyl-2-oxoimidazolidin-1-yl)methyl)piperidin-1-yl)-9H-pyrimido[4,5-b]indol-7-yl)piperazin-1-yl)methyl)piperidin-1-yl)phenyl)dihydropyrimidine-2,4(1H,3H)-dione], in the experiment with HEK-293 cells, the IC50 was > 10 µM. Also, the DC50 at BTK was > 2 µM.

For `Cc1c([C@@H](C)NC(=O)c2noc(C(C)(C)C)n2)ccc(-c2ncnc3[nH]c4cc(N5CCN(CCc6cccc7c6n(C)c(=O)n7C6CCC(=O)NC6=O)CC5)ccc4c23)c1F` (stereo partly drawn) [Example 82, 5-(tert-butyl)-N-((1R)-1-(4-(7-(4-(2-(1-(2,6-dioxopiperidin-3-yl)-3-methyl-2-oxo-2,3-dihydro-1H-benzo[d]imidazol-4-yl)ethyl)piperazin-1-yl)-9H-pyrimido[4,5-b]indol-4-yl)-3-fluoro-2-methylphenyl)ethyl)-1,2,4-oxadiazole-3-carboxamide], in the experiment with HEK-293 cells, the IC50 was > 10 µM. Also, it took 0.00317 µM to reach half-maximal degradation on BTK (DC50).

With `COc1cc2c(cc1N1CCN(Cc3ccc4c(c3)C(C)(C)C(=O)N4C3CCC(=O)NC3=O)CC1)[nH]c1ncnc(-c3cc(C)c([C@@H](C)NC(=O)c4nc(C(C)(C)C)no4)cc3F)c12` (stereo partly drawn) [Example 83, 3-(tert-butyl)-N-((1R)-1-(4-(7-(4-((1-(2,6-dioxopiperidin-3-yl)-3,3-dimethyl-2-oxoindolin-5-yl)methyl)piperazin-1-yl)-6-methoxy-9H-pyrimido[4,5-b]indol-4-yl)-5-fluoro-2-methylphenyl)ethyl)-1,2,4-oxadiazole-5-carboxamide], in the experiment with HEK-293 cells, the IC50 was > 10 µM. For the same compound, half-maximal degradation on BTK (DC50) was put at 0.00242 µM.
